# Assay results taken from patent US20260216170A1, “TETRAHYDROISOQUINOLINE HETEROBIFUNCTIONAL BCL-XL DEGRADERS” (Treeline Biosciences, Inc., priority 2023, published 2026).
# Molecular target: T1, Human BCL-XL protein (N-terminal HiBiT tagged BCL-XL expressed in HT1080 cells) (Homo sapiens, UniProt Q07817)
# T1 construct: expressed in transfected cells; host or cells: HT-1080 (ATCC CCL-121), stably transduced with lentivirus pLV-UBC-N-HiBiT-BCL-XL-PGK-puro and selected with puromycin
# Assay: HiBiT Based Degradation Assay
# Format: cell-based
# Details: 24 hours incubation; for DC50: BCL-XL degradation, HT1080 cells expressing N-HiBiT-BCL-XL, normalized with DMSO control, geometric mean for multiple data points, read-out: EC50 (24 h); for Ymin (24 h): bottom of BCL-XL degradation curve (remaining HiBiT-BCL-XL signal vs DMSO control), HT1080 cells
# Summary of the method: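 BCL-XL degradation was read as Nano-Glo HiBiT lytic luminescence relative to DMSO after a 24 h compound treatment of HT1080 cells carrying stably integrated N-HiBiT-BCL-XL. EC50 values come from four-parameter logistic curves, with the hook-curve minimum fixed as bottom, and are geometric means where tested repeatedly.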
# T1 sequence (Q07817 whole entry): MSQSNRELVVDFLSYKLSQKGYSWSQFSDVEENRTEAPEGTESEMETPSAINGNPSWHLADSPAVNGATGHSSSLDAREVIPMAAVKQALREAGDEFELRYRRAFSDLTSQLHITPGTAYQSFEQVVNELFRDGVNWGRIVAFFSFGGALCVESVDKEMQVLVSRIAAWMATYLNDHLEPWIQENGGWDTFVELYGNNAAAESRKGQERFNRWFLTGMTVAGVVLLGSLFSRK
DC50 [nM],Ymin (24 h),SMILES
10 to 100,B (30% ≤ Ymin < 50%),"Cn1nc(C2CCC(=O)NC2=O)c2ccc(NC(=O)CN3CCC(CCCOc4ccc(-c5ccc(N6CCc7cccc(C(=O)Nc8nc9ccccc9s8)c7C6)nc5C(=O)O)c(F)c4)CC3)c(F)c21 (centres unmarked) [Compound 212, 6-(8-(benzo[d]thiazol-2-ylcarbamoyl)-3,4-dihydroisoquinolin-2(1H)-yl)-3-(4-(3-(1-(2-((3-(2,6-dioxopiperidin-3-yl)-7-fluoro-1-methyl-1H-indazol-6-yl)amino)-2-oxoethyl)piperidin-4-yl)propoxy)-2-fluorophenyl)picolinic acid]"
10 to 100,B (30% ≤ Ymin < 50%),"Cc1c(OCCCC2(O)CCN(CC(=O)Nc3ccc4c(C5CCC(=O)NC5=O)nn(C)c4c3)CC2)cccc1-c1ccc(N2CCc3cccc(C(=O)Nc4nc5ccccc5s4)c3C2)nc1C(=O)O (centres unmarked) [Compound 108, 6-(8-(benzo[d]thiazol-2-ylcarbamoyl)-3,4-dihydroisoquinolin-2(1H)-yl)-3-(3-(3-(1-(2-((3-(2,6-dioxopiperidin-3-yl)-1-methyl-1H-indazol-6-yl)amino)-2-oxoethyl)-4-hydroxypiperidin-4-yl)propoxy)-2-methylphenyl)picolinic acid]"
10 to 100,B (30% ≤ Ymin < 50%),"Cc1cc(O[C@H](C)CCC2CCN(CC(=O)Nc3ccc4c(C5CCC(=O)NC5=O)nn(C)c4n3)CC2)ccc1-c1ccc(N2CCc3cccc(C(=O)Nc4nc5ccccc5s4)c3C2)nc1C(=O)O (single isomer, unassigned) [Compound 225b]"
10 to 100,B (30% ≤ Ymin < 50%),"COc1c(NC(=O)CN2CCC(CC[C@H](C)Oc3ccc(-c4ccc(N5CCc6cccc(C(=O)Nc7nc8ccccc8s7)c6C5)nc4C(=O)O)c(C)c3)CC2)ccc2c(C3CCC(=O)NC3=O)nn(C)c12 (single isomer, unassigned) [Compound 223a]"
< 10,B (30% ≤ Ymin < 50%),"Cn1nc(C2CCC(=O)NC2=O)c2ccc(NC(=O)CN3CCC4(CC3)CC(COc3ccc(-c5ccc(N6CCc7ccnc(C(=O)Nc8nc9ccccc9s8)c7C6)nc5C(=O)O)c(C(F)(F)F)c3)C4)cc21 (centres unmarked) [Compound 160, 6-[8-(1,3-benzothiazol-2-ylcarbamoyl)-3,4-dihydro-1H-2,7-naphthyridin-2-yl]-3-[4-[[7-[2-[[3-(2,6-dioxo-3-piperidyl)-1-methyl-indazol-6-yl]amino]-2-oxo-ethyl]-7-azaspiro[3.5]nonan-2-yl]methoxy]-2-(trifluoromethyl)phenyl]pyridine-2-carboxylic acid]"
10 to 100,A (Ymin < 30%),"C[C@H]1C[C@@H](CCCOc2ccc(-c3ccc(N4CCc5cccc(C(=O)Nc6nc7ccccc7s6)c5C4)nc3C(=O)O)c(C(F)(F)F)c2)CCN1CC(=O)Nc1ccc2c(C3CCC(=O)NC3=O)nn(C)c2c1 (stereo partly drawn) [Compound 209a, 6-(8-(benzo[d]thiazol-2-ylcarbamoyl)-3,4-dihydroisoquinolin-2(1H)-yl)-3-(4-(3-((2S,4S)-1-(2-((3-(2,6-dioxopiperidin-3-yl)-1-methyl-1H-indazol-6-yl)amino)-2-oxoethyl)-2-methylpiperidin-4-yl)propoxy)-2-(trifluoromethyl)phenyl)picolinic acid]"
10 to 100,B (30% ≤ Ymin < 50%),"Cc1cc(O[C@@H](C)CCC2CCN(CC(=O)Nc3ccc4c(C5CCC(=O)NC5=O)nn(C)c4c3F)CC2)ccc1-c1ccc(N2CCc3cccc(C(=O)Nc4nc5ccccc5s4)c3C2)nc1C(=O)O (single isomer, unassigned) [Compound 224a]"
10 to 100,B (30% ≤ Ymin < 50%),"Cc1c(OC[C@H]2C[C@@H]2C2CCN(CC(=O)Nc3ccc4c(C5CCC(=O)NC5=O)nn(C)c4c3)CC2)cccc1-c1ccc(N2CCc3cccc(C(=O)Nc4nc5ccccc5s4)c3C2)nc1C(=O)O (single isomer, unassigned) [Compound 1001b]"
< 10,A (Ymin < 30%),"Cc1cc(OCCCC2CCN(CC(=O)Nc3ccc4c(C5CCC(=O)NC5=O)nn(C)c4c3)CC2)ccc1-c1ccc(N2CCc3ccnc(C(=O)Nc4nc5ccccc5s4)c3C2)nc1C(=O)O (centres unmarked) [Compound 141, 6-[8-(1,3-benzothiazol-2-ylcarbamoyl)-3,4-dihydro-1H-2,7-naphthyridin-2-yl]-3-[4-[3-[1-[2-[[3-(2,6-dioxo-3-piperidyl)-1-methyl-indazol-6-yl]amino]-2-oxo-ethyl]-4-piperidyl]propoxy]-2-methyl-phenyl]pyridine-2-carboxylic acid]"
10 to 100,A (Ymin < 30%),Cc1cc(OCCC[C@@H]2CCN(CC(=O)Nc3ccc4c(C5CCC(=O)NC5=O)nn(C)c4c3)[C@@H](C)C2)ccc1-c1ccc(N2CCc3cccc(C(=O)Nc4nc5ccccc5s4)c3C2)nc1C(=O)O (some centres unmarked) [Compound 210a]

# Continued, molecule first:
SMILES,DC50 [nM],Ymin (24 h)
Cc1c(NCCCC2CCN(CC(=O)Nc3ccc4c(C5CCC(=O)NC5=O)nn(C)c4c3)CC2)cccc1-c1ccc(N2CCc3cccc(C(=O)Nc4nc5ccccc5s4)c3C2)nc1C(=O)O (centres unmarked) [Compound 217],< 10,B (30% ≤ Ymin < 50%)
Cn1nc(C2CCC(=O)NC2=O)c2ccc(NC(=O)CN3CCN(CCCO[C@H]4CC[C@H](c5ccc(N6CCc7cccc(C(=O)Nc8nc9ccccc9s8)c7C6)nc5C(=O)O)CC4)CC3)cc21 (some centres unmarked) [Compound 2001a],< 10,B (30% ≤ Ymin < 50%)
Cc1c(OCC2CC3(CCN(CC(=O)Nc4cc5c(cc4C(F)(F)F)c(C4CCC(=O)NC4=O)nn5C)CC3)C2)cccc1-c1ccc(N2CCc3cccc(C(=O)Nc4nc5ccccc5s4)c3C2)nc1C(=O)O (centres unmarked) [Compound 139],1000 to 10000,C (50% ≤ Ymin < 70%)
Cc1c(-c2ccc(N3CCc4cccc(C(=O)Nc5nc6ccccc6s5)c4C3)nc2C(=O)O)cccc1N(C)CCCC1CCN(CC(=O)Nc2ccc3c(C4CCC(=O)NC4=O)nn(C)c3c2)CC1 (centres unmarked) [Compound 220],10 to 100,C (50% ≤ Ymin < 70%)
"Cn1nc(C2CCC(=O)NC2=O)c2ccc(NC(=O)CN3CCC4(CC3)CC(COc3cccc(-c5ccc(N6CCc7cccc(C(=O)Nc8nc9ccccc9s8)c7C6)nc5C(=O)O)c3C(F)(F)F)C4)cc21 (centres unmarked) [Compound 132, 6-(8-(benzo[d]thiazol-2-ylcarbamoyl)-3,4-dihydroisoquinolin-2(1H)-yl)-3-(3-((7-(2-((3-(2,6-dioxopiperidin-3-yl)-1-methyl-1H-indazol-6-yl)amino)-2-oxoethyl)-7-azaspiro[3.5]nonan-2-yl)methoxy)-2-(trifluoromethyl)phenyl)picolinic acid]",10 to 100,B (30% ≤ Ymin < 50%)
COc1c(NC(=O)CN2CC[C@@H](CCCOc3cccc(-c4ccc(N5CCc6cccc(C(=O)Nc7nc8ccccc8s7)c6C5)nc4C(=O)O)c3C)C[C@H]2C)ccc2c(C3CCC(=O)NC3=O)nn(C)c12 (some centres unmarked) [Compound 208d],10 to 100,B (30% ≤ Ymin < 50%)
Cn1nc(C2CCC(=O)NC2=O)c2ccc(NC(=O)CN3CCC4(CC3)CC(Oc3ccc(-c5ccc(N6CCc7cccc(C(=O)Nc8nc9ccccc9s8)c7C6)nc5C(=O)O)c(C(F)(F)F)c3)C4)nc21 (centres unmarked) [Compound 193],10 to 100,B (30% ≤ Ymin < 50%)
Cc1cc(OC2CC3(CCN(CC(=O)Nc4ccc5c(C6CCC(=O)NC6=O)nn(C)c5c4F)CC3)C2)ccc1-c1ccc(N2CCc3cccc(C(=O)Nc4nc5ccccc5s4)c3C2)nc1C(=O)O (centres unmarked) [Compound 191],< 10,B (30% ≤ Ymin < 50%)
"Cc1cc(OC[C@@H]2C[C@H]2C2CCN(CC(=O)Nc3ccc4c(C5CCC(=O)NC5=O)nn(C)c4c3)CC2)ccc1-c1ccc(N2CCc3cccc(C(=O)Nc4nc5ccccc5s4)c3C2)nc1C(=O)O (single isomer, unassigned) [Compound 1003b]",< 10,B (30% ≤ Ymin < 50%)
"Cc1c(OCC2CC3(CCN(CCCc4ccc5c(C6CCC(=O)NC6=O)nn(C)c5c4)CC3)C2)cccc1-c1ccc(N2CCc3cccc(C(=O)Nc4nc5ccccc5s4)c3C2)nc1C(=O)O (centres unmarked) [Compound 149, 6-[8-(1,3-benzothiazol-2-ylcarbamoyl)-3,4-dihydro-1H-isoquinolin-2-yl]-3-[3-[[7-[3-[3-(2,6-dioxo-3-piperidyl)-1-methyl-indazol-6-yl]propyl]-7-azaspiro[3.5]nonan-2-yl]methoxy]-2-methyl-phenyl]pyridine-2-carboxylic acid]",< 10,A (Ymin < 30%)
"Cn1nc(C2CCC(=O)NC2=O)c2ccc(NC(=O)CN3CCC4(CC3)CC(Oc3cccc(-c5ccc(N6CCc7cccc(C(=O)Nc8nc9ccccc9s8)c7C6)nc5C(=O)O)c3C(F)(F)F)C4)nc21 (centres unmarked) [Compound 192, 6-(8-(benzo[d]thiazol-2-ylcarbamoyl)-3,4-dihydroisoquinolin-2(1H)-yl)-3-(3-((7-(2-((3-(2,6-dioxopiperidin-3-yl)-1-methyl-1H-pyrazolo[3,4-b]pyridin-6-yl)amino)-2-oxoethyl)-7-azaspiro[3.5]nonan-2-yl)oxy)-2-(trifluoromethyl)phenyl)picolinic acid]",< 10,B (30% ≤ Ymin < 50%)
"COc1c(NC(=O)CN2CCC3(CC2)CC(COc2ccc(-c4ccc(N5CCc6cccc(C(=O)Nc7nc8ccccc8s7)c6C5)nc4C(=O)O)c(C)c2)C3)ccc2c(C3CCC(=O)NC3=O)nn(C)c12 (centres unmarked) [Compound 128, 6-(8-(benzo[d]thiazol-2-ylcarbamoyl)-3,4-dihydroisoquinolin-2(1H)-yl)-3-(4-((7-(2-((3-(2,6-dioxopiperidin-3-yl)-7-methoxy-1-methyl-1H-indazol-6-yl)amino)-2-oxoethyl)-7-azaspiro[3.5]nonan-2-yl)methoxy)-2-methylphenyl)picolinic acid]",< 10,A (Ymin < 30%)
